Reference: patent US10787425B2, “Thiazolidinedione derivative and use thereof” (INDUSTRY-ACADEMIC COOPERATION FOUNDATION CHOSUN UNIVERSITY, priority 2016, dated 2020)

Legend:
15-PGDH = 15-PGDH (Homo sapiens (Human), UniProt P15428); assay: 15-PGDH inhibitory activity (NADH at 340 nm); assay type: biochemical; details: concentration inhibiting 50% of 15-PGDH activity; purified 15-PGDH, 21 μM PGE2, 0.25 mM NAD+
Summary of the method: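 GST-purified human 15-PGDH (E. coli BL-21 LysS, 10 μg) with 21 μM PGE2 and 0.25 mM NAD+ in 50 mM Tris-HCl pH 7.5, 0.1 mM DTT. Compound tested at 0.0001–64 μM; NADH formation read by absorbance at 340 nm against a standard curve.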

A549 cells = assay: Measurement of PGE2 concentration in A549 cell medium (ELISA); assay type: cell-based, human; details: for Increment %: PGE2 concentration versus PBS control, 5 μM, 12 hours; for PGE2 concentration: inhibitor 5 μM, medium collected after 12 hours, ELISA
Summary of the method: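 A549 cells in RPMI 1640 with 8% FBS, seeded at 5×10^5 cells/well and grown 24 h at 37° C, 5% CO2; at ~80% confluence treated with 15-PGDH inhibitor at 5 μM in PBS (PBS-only negative control). After 12 h, PGE2 in the medium was measured by ELISA against a standard curve.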

HaCaT cells = assay: Wound treatment (scratch) assay in HaCaT cells; assay type: cell-based, human; details: 48 hours
Protocol: HaCaT cells subcultured for about one week in DMEM [containing+8% FBS, AA] medium were inoculated in a 6-well plate at 2×10^5 cells/mL ([…]). Then, the cells were cultured for about 24 hours until the cells reached 80% confluency. HaCaT cells are an adult human skin-derived and spontaneously […] aneuploid immortal keratinocyte cell line. After the culture, the cells were washed with 1×PBS buffer and the used medium was replaced with an FBS and antibiotic-free medium. Then, mitomycin was added thereto at a concentration of 30 μg/mL and the cells were cultured for 2 hours. Then, the cells were washed with 1×PBS buffer, and a cell monolayer on the bottom surface of each well was scratched by using a 200 μL pipette tip to harm the cells. Since some cells were washed away by the scratching, the plate was washed repeatedly with 1×PBS buffer and then, filled with DMEM medium containing FBS and AA, and photographed at the time of 0 hour.
The 15-PGDH inhibitor was then injected at a concentration of 5 μM or the indicated concentration. For comparison with the results, in the case of the negative control, nothing was added, and in the case of the positive control, TGF-β1 was injected at a concentration of 1 ng/mL and then, the cells were cultured for 48 hours. After 48 hours, the picture of the cells was taken again to confirm how much the cells were grown due to the drug effect.

[1] = 5 μM, versus control (FIGS. 1 to 3)
[2] = 0.5 μM to 5 μM, versus control (FIGS. 4 to 6)

15-PGDH, sequence (P15428 whole entry): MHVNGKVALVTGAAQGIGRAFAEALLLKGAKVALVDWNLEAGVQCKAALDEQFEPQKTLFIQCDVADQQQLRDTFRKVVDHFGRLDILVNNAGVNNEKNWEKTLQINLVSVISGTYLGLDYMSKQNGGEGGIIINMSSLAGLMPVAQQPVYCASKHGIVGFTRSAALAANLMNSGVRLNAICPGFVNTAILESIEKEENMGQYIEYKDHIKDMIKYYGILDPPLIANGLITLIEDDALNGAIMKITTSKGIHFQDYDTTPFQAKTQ

Row | SMILES | IC50 (15-PGDH) | Increment % (A549 cells) | PGE2 concentration (A549 cells) | wound closure rate (HaCaT cells; [1]) | wound closure rate (HaCaT cells; [2])
1 | O=C1NC(=O)/C(=C/c2ccc(OC(=O)C3CC3)c(Cl)c2)S1 [Compound 1, (Z)-2-chloro-4-((2,4-dioxothiazolidin-5-ylidene)methyl)phenyl cyclopropanecarboxylate] | 2090 nM | 3.47% | 283.2688 pg/mL | significantly higher wound closure rates than the control | –
2 | O=C(CCCc1ccccc1)Oc1ccc(/C=C2\SC(=O)NC2=O)cc1Cl [Compound 14, (Z)-2-chloro-4-((2,4-dioxothiazolidin-5-ylidene)methyl)phenyl 4-phenylbutanoate] | 22 nM | 389.99% | 586.3975 pg/mL | significantly higher wound closure rates than the control | –
3 | CCOc1cc(/C=C2\SC(=O)NC2=O)ccc1OC(=O)CCCc1ccccc1 [Compound 59, (Z)-4-((2,4-dioxothiazolidin-5-ylidene)methyl)-2-ethoxyphenyl 4-phenylbutanoate] | 43.9 nM | 579.34% | 1081.055 pg/mL | significantly higher wound closure rates than the control | significantly high wound closure rate
4 | O=C(CCCc1ccccc1)Oc1cccc(/C=C2\SC(=O)NC2=O)c1Cl [Compound 89, (Z)-2-chloro-3-((2,4-dioxothiazolidin-5-ylidene)methyl)phenyl 4-phenylbutanoate] | 25.1 nM | 398.2% | 1048.274 pg/mL | significantly higher wound closure rates than the control | significantly high wound closure rate
5 | O=C(CC1CCCC1)Oc1ccc(/C=C2\SC(=O)NC2=O)c(Cl)c1 [Compound 94, (Z)-3-chloro-4-((2,4-dioxothiazolidin-5-ylidene)methyl)phenyl 2-cyclopentylacetate] | 32.7 nM | 97.1474% | 220.1299 pg/mL | – | –
6 | O=C1NC(=O)/C(=C/c2ccc(OC(=O)C3CCCCC3)cc2Cl)S1 [Compound 96, (Z)-3-chloro-4-((2,4-dioxothiazolidin-5-ylidene)methyl)phenyl cyclohexanecarboxylate] | 26.8 nM | 8.8874% | 121.5809 pg/mL | – | –
7 | O=C(CC1CCCCC1)Oc1ccc(/C=C2\SC(=O)NC2=O)c(Cl)c1 [Compound 97, (Z)-3-chloro-4-((2,4-dioxothiazolidin-5-ylidene)methyl)phenyl 2-cyclohexylacetate] | 27.7 nM | 8.1011% | 120.703 pg/mL | – | –
8 | O=C(CCCCC1CCCCC1)Oc1ccc(/C=C2\SC(=O)NC2=O)c(Cl)c1 [Compound 100, (Z)-3-chloro-4-((2,4-dioxothiazolidin-5-ylidene)methyl)phenyl 5-cyclohexylpentanoate] | 39.4 nM | −3.7411% | 107.4803 pg/mL | – | –
9 | O=C(O)c1ccccc1.O=C1NC(=O)/C(=C/c2ccc(OC(=O)c3ccccc3)cc2Cl)S1 [Compound 101, (Z)-3-chloro-4-((2,4-dioxothiazolidin-5-ylidene)methyl)phenyl benzoate] | 45.1 nM | 79.4871% | 200.4108 pg/mL | – | –
10 | O=C(Cc1ccccc1)Oc1ccc(/C=C2\SC(=O)NC2=O)c(Cl)c1 [Compound 102, (Z)-3-chloro-4-((2,4-dioxothiazolidin-5-ylidene)methyl)phenyl 2-phenylacetate] | 75.3 nM | 99.2022% | 222.4242 pg/mL | – | –
11 | O=C(CCc1ccccc1)Oc1ccc(/C=C2\SC(=O)NC2=O)c(Cl)c1 [Compound 103, (Z)-3-chloro-4-((2,4-dioxothiazolidin-5-ylidene)methyl)phenyl 3-phenylpropanoate] | 87.5 nM | 159.989% | 290.2972 pg/mL | – | –
12 | O=C(CCCc1ccccc1)Oc1ccc(/C=C2\SC(=O)NC2=O)c(Cl)c1 [Compound 104, (Z)-3-chloro-4-((2,4-dioxothiazolidin-5-ylidene)methyl)phenyl 4-phenylbutanoate] | 74.9 nM | 213.4577% | 349.9990 pg/mL | – | –
13 | O=C(CCCCc1ccccc1)Oc1ccc(/C=C2\SC(=O)NC2=O)c(Cl)c1 [Compound 105, (Z)-3-chloro-4-((2,4-dioxothiazolidin-5-ylidene)methyl)phenyl 5-phenylpentanoate] | 130 nM | 89.4598% | 211.5461 pg/mL | – | –
